Laboratory results as given in US20070212786A1, “Monitoring heparin by microelectronic devices” (priority 2005, published 2007).

Molecular target: T1, AT-III (Homo sapiens, UniProt P01008)
T1 construct: purchased Bayer Corp
Assay: AT-III field-effect sensor binding (differential surface potential dose-response)
Conditions: covalently immobilized biotinylated AT-III on the active sensor, BSA-passivated control sensor, dose-response curve FIG. 4B
From the text: In one embodiment, AT-III is used as a covalently immobilized surface receptor. In this embodiment, the present invention can monitor active heparin. FIG. 4A illustrates the surface immobilization chemistry according to this embodiment. The surface immobilization chemistry involves aldehyde-terminated silanization of the SiO2 surface, followed by the reductive amination of the aldehyde groups to the surface-exposed amino groups of avidin, blocking the unreacted sites by ethanolamine, and attachment of covalently-immobilized avidin to biotinylated AT-III. […] Upon deblocking, the resulting bAT-III remains fully active because the heparin-binding site remains intact and unhindered because the introduced biotin groups are positioned away from it. This immobilization strategy ensures full activity and the desired surface orientation of AT-III for maximizing the sensor performance. […] The selectivity of the AT-III sensor to heparin sequence was measured by examining the binding affinity to chondroitin sulfate, a negatively charged polysaccharide structurally related to heparin. […]
The surface potential of the filed sensitive region was determined by applying an AC signal (50 mV sine wave at 4 kHz) to the reference electrode and measuring the resulting current through the EIS structure with a current preamp (Keithley Model 428) and lock-in amplifier. […]

T1 sequence (P01008 33-464): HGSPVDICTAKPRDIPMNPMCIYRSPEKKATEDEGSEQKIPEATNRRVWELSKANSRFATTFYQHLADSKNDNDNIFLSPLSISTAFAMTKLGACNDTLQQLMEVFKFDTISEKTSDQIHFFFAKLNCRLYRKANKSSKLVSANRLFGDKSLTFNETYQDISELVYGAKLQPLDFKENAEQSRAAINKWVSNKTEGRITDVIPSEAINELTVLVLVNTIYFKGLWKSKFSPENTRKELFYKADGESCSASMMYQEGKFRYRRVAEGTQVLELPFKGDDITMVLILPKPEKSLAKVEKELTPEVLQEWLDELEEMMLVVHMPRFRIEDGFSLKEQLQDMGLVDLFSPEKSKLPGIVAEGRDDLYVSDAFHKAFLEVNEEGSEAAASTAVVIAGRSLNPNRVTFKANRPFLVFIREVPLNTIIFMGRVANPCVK

## chondroitin sulfate
  response of the AT-III sensor (binding affinity, selectivity versus heparin): neglible
